For orientation: melting point means the temperature, or range, at which the solid turns liquid.

Compound `CC(C)CCNC(=O)c1ccccc1-c1ccccc1CNS(=O)(=O)c1ccccc1` came in with a melting point of 127 °C.

In turn, `CCOC(OCC)C(O)(Cc1c(NC(=O)C(C)(C)C)cnc(Cl)c1C)c1ccccc1` (centres undefined) yielded a melting point of 133 °C.

Compound `CCn1ncc2c(NCC34CC5CC(CC(C5)C3)C4)c3ccccc3nc21` yielded a melting point of 310 °C.

`COC(=O)C1CCC2C3CC(=O)C4(O)CC(O)CCC4(C)C3CCC12C` (centres undefined): the melting point was in the range of 258 to 260 °C.

In turn, `CC(C)Oc1ccc(N(N)C(=O)N(C)C)cc1Cl` showed a melting point of 73 to 74 °C.

`COc1cc(Nc2nc3c(ccc4c3ncn4CCN3CCOCC3)cc2C#N)c(C)cc1Cl`: the melting point was 246 to 248 °C.

Regarding `CCC(O)c1cc2cc(OCC(=O)O)c(Cl)c(Cl)c2s1` (centres undefined), the melting point was 156 to 158 °C.

As to `Cc1cc(C)cc(S(=O)(=O)n2c(CCC(=O)O)cc3nc(C(F)(F)F)ccc32)c1`, the melting point lay within 185 to 189 °C.

Turning to `COc1cccc(CN=Cc2cccc(O)c2)c1`, the melting point was determined as 103 °C.

Regarding `CC(=O)Nc1ccc(OC2SCC(O)C(O)C2O)cc1` (centres undefined), the melting point came to 238 °C.

In turn, `COc1ccc(CCN2COc3c(cccc3OC)C2)cc1` showed a melting point of 69 to 70 °C.

`CCc1oc2ccccc2c1C(=O)c1c(Br)cc(Br)c(O)c1Br` returned a melting point of 153 to 154 °C.

`CCOC(=O)C(O)CSc1ccc(-c2ccccc2)cc1` (centres undefined) yielded a melting point of 102 °C.

Take `CC1(C)Oc2cc3nonc3cc2[C@@H](NC(=O)Nc2ccccc2)[C@@H]1O` (relative stereo): the melting point lay within 215 to 216 °C.

For the compound `CCC1CC(=O)c2cc(C(C)C(N)=O)ccc2O1` (centres undefined), the melting point was in the range of 148 to 150 °C.

As for `COc1ccc(NC(=O)c2ccc(-c3ccc(-c4noc(CO)n4)cc3C)cc2)cc1N1CCN(C)CC1`, the melting point fell in the range of 175 to 178 °C.

Compound `Cc1c(C(=O)N[C@H](C(=O)O)c2ccc(OCc3ccccc3)cc2)oc2cc(-c3ccc(Cl)cc3)ccc12` came in with a melting point of 178 °C.

Consider `NC(=S)Nc1ccc(F)cc1-c1ccccc1`, for which the melting point fell in the range of 188 to 190 °C.

On to `O=C(NC(=O)c1c(F)cccc1F)Nc1ccc2c(c1)C(F)(F)C(F)(F)O2`, for which the melting point was 183 to 184 °C.

Turning to `CC(=O)NCC1CN(c2ccc(N3CCC(C4NN=C(N)S4)CC3)c(F)c2)C(=O)O1` (centres undefined), the melting point was in the range of 168 to 169 °C.

`CC(C)(C)OC(=O)NCC(CNC(=O)OC(C)(C)C)OS(C)(=O)=O`: the melting point is 127 °C.

The compound `CCn1c2ccc3ccccc3c2c2cccc(C=O)c21` gave a melting point of 148 to 149 °C.

On to `CS(=O)(=O)CCS(=O)(=O)C1CCCCC1`, for which the melting point is 89 to 91 °C.

Take `CON=C1CN(c2nc3c(cc2F)c(=O)c(C(=O)O)cn3-c2ccc(F)cc2F)CC12CN(C(=O)OC(C)(C)C)C2`: the melting point lay within 230 to 232 °C.

The compound `CN(C)Cc1ccc2cc(-c3nnc(CSCCOc4ccccc4)o3)ccc2c1` registered a melting point of 95 to 96 °C.

Turning to `CCCCC1(C2CCCC2)Cc2cc(O)c(Cl)c(Cl)c2C1=O` (centres undefined), the melting point is 160 °C.

`ClCc1ccc(OCc2ccccc2)cc1` gave a melting point of 74 to 76 °C.

`N=c1nc(Cl)cc(N)n1O` came in with a melting point of 193 °C.

For the compound `CC(O)(C(O)C(O)=Cc1ccccc1)C(O)(Br)C(O)C(O)=Cc1ccccc1` (centres undefined), the melting point is 277 to 279 °C.

For `CC(C)(C)c1ccccc1N1CCN(C(=O)c2ccccc2)CC1`, the melting point fell in the range of 104 to 106 °C.

Take `CCOC(=O)C(=O)Nc1cc(NC(=O)NC)ccc1O`: the melting point was in the range of 235 to 236 °C.

The compound `COC(=O)N1CCN(Cc2nc(-c3ccc4c(c3)Nc3ccccc3S4)cs2)CC1` returned a melting point of 180 to 182 °C.

`COc1ccc2[nH]cc(CC(=O)N3CCN(c4ccc(NC(=N)c5cccs5)cc4)CC3)c2c1` yielded a melting point of 221 to 222 °C.

`CN(C)c1ccc(C(=CC(c2ccc(N(C)C)cc2)c2ccc(N(C)C)cc2)c2ccc(N(C)C)cc2)cc1`: the melting point lay within 189 to 190 °C.

`O=S(=O)(NCC(O)(Cn1cncn1)c1ccc(Cl)cc1Cl)c1ccc2ccccc2c1` (centres undefined) came in with a melting point of 179 to 180 °C.

Consider `COc1ccc(O)c2[nH]c(C)c(C)c12`, for which the melting point was 159 °C.

`CC(C)Cn1c(CNC(=O)OC(C)(C)C)c(-c2ccccc2)c2cc(-c3nc(N)cs3)ccc2c1=O` came in with a melting point of 195 to 196 °C.

On to `O=C(O)[C@H](Cc1ccccc1)NC(=S)Cc1ccccc1`, for which the melting point was 63 to 65 °C.

For the compound `CS(=O)(=O)OCCCn1cc(C2=C(c3ccccc3[N+](=O)[O-])C(=O)NC2=O)c2ccccc21`, the melting point fell in the range of 177 to 178 °C.

In turn, `CCOC(=O)c1[nH]c2ccc(C(O)(C(F)(F)F)C(F)(F)F)cc2c1-c1ccccc1` yielded a melting point of 185 to 193 °C.

`COc1ccccc1N1CCN(CCCCCS(=O)(=O)c2cccc3c(=O)c(C)c(-c4ccccc4)oc23)CC1` returned a melting point of 120 to 123 °C.

As to `CCCCCCCCCCCCCCCCNc1ccc(C=O)cc1`, the melting point fell in the range of 66.5 to 67.5 °C.

Take `c1ccc(C(c2ccccc2)N2CCN(CCCCn3cccc3)CC2)cc1`: the melting point was in the range of 80 to 84 °C.

Consider `CCCc1c(OCCCCCCOc2ccc(C(=O)c3cccc(C(=O)OCC)c3)cc2CCC(=O)OCC)ccc2c1OCCC2=O`, for which the melting point lay in the range of 58 to 59.5 °C.

In the case of `OCc1c(C(F)(F)F)nn(-c2ccccc2)c1OC(F)F`, the melting point fell in the range of 57 to 59 °C.

The compound `ClCc1cn2cc(Cl)ccc2n1` showed a melting point of 123 to 124 °C.

`Cc1nc(CC#N)c2c(OCc3ccccc3)cccn12`: the melting point fell in the range of 118 to 119 °C.

The compound `COC(=O)COc1ccc(C(=O)NC(=O)Nc2ccc(C(N)=S)cc2)cc1` yielded a melting point of 215 to 218 °C.

With `O=C1c2ccccc2CCC1CN1CCC(O)(c2ccccc2)CC1` (centres undefined), the melting point lay within 164 to 167 °C.

In the case of `OC1CCCCC1n1c(Br)nc2cc(Cl)c(Cl)cc21` (centres undefined), the melting point lay within 186 to 188 °C.

Compound `N#CC=C(N)c1ccccc1C(F)(F)F` came in with a melting point of 101 to 103 °C.

On to `C[Si](C)(C)CCCCCNC(=O)n1cc(F)c(=O)[nH]c1=O`, for which the melting point fell in the range of 118 to 119 °C.

With `CCc1nc(OC)c(NC(=O)N2CCN(c3cccc(F)c3)CC2)cc1C(=O)NC(C)C(=O)Nc1cc(CO)cc(Nc2c3ccccc3nc3ccccc23)c1` (centres undefined), the melting point was 208 to 210 °C.

The compound `O=c1[nH]c2ccccc2c2c(=O)n(-c3ccccc3)[nH]c12` gave a melting point greater than 260 °C.

For `Fc1ccc2c(c1)C(=C1CCNCC1)c1ncccc1CC2`, the melting point was 78 to 81 °C.

With `CCOc1nn(-c2ccc(C(F)(F)F)cn2)cc1CCCOc1cc(CC(=O)O)ccc1OC`, the melting point fell in the range of 142 to 143 °C.

For `Cc1ccc(N=Cc2ccc(-c3ccccc3)cc2)cc1`, the melting point fell in the range of 137 to 139 °C.

Take `CCCCCCCCCCCCCCCCC[C@@H](O)C[C@H]1OC(=O)[C@@H]1CCC`: the melting point is 84 to 85 °C.

`O=C(O)COc1ccc(S(=O)(=O)c2cccs2)c(Cl)c1Cl` displayed a melting point of 179 °C.

Take `CCCCOc1cccc(CCNC(=O)C(Br)=Cc2ccccc2)c1`: the melting point was in the range of 38 to 39 °C.

`CCN(CC)C(=O)Cc1c(-c2ccc(Br)cc2)nc2c(C)cc(C)nn12` returned a melting point of 171 to 175 °C.

`CCOC(=O)c1ccc2c(c1)C(=O)C(=O)N2` came in with a melting point of 205 to 206 °C.

The compound `Cc1nc(C(C)(C)C)c(O)c(C(C)(C)C)n1` yielded a melting point of 62 to 65 °C.

`COc1ccc(O)c(Cc2cccc(C(F)(F)F)c2)c1` came in with a melting point of 188 to 190 °C.

Consider `CCCOc1ccc(Br)cc1-c1nc2cc3nc[nH]c3cc2c(=O)[nH]1`, for which the melting point lay within 154 to 155 °C.

`O=C1CCCC2CN(C(Cc3ccccc3)=NCc3cccs3)CC12` (centres undefined) showed a melting point of 114 °C.

The compound `O=C(NC1CC(=O)c2ccccc2C1)OCc1ccccc1` (centres undefined) registered a melting point of 79.5 to 81.5 °C.

`O=c1[nH]c(C(F)(F)F)c(Br)c(=O)[nH]1`: the melting point was in the range of 236 to 240 °C.

Compound `C=C1CC(C)(COc2cc(=O)oc3ccccc23)OC1=O` (centres undefined) came in with a melting point of 161 to 162 °C.

Regarding `Cc1ccc(S(=O)(=O)N2CCCC2c2ccc(N(C)C)c(F)c2)cc1` (racemic), the melting point was 66 °C.

`CCOC=C(C(=O)OCC)C(=O)c1ccc(I)cc1Cl` gave a melting point of 237 to 240 °C.

In turn, `CN(C)C(=O)c1cc(C#N)cnc1Cl` yielded a melting point of 148 to 153 °C.

In turn, `O=C(Nc1ccc(-n2nc(-c3ccoc3)cc2OC(F)F)cc1)c1ccncc1F` gave a melting point of 172 to 174 °C.

Turning to `CCc1cn(C2CC(O)C(CNC(=O)CS(=O)(=O)c3ccccc3)O2)c(=O)[nH]c1=O` (centres undefined), the melting point was 218 to 219 °C.

`CC(C)(O)Cc1ccc2ccccc2c1` registered a melting point of 79 to 80 °C.

On to `O=C(O)c1ccc(Nc2noc(C(F)(F)F)n2)cc1`, for which the melting point was 244 to 246 °C.

In turn, `CCc1nc2c(N)nc3ccccc3c2n1CC1(C(N)=O)CCC1` showed a melting point of 227 to 230 °C.

Compound `CNc1nc(-c2cccc(NC(=O)c3ccc(S(C)(=O)=O)cc3)c2)c2cc(OC)c(OC)cc2n1` returned a melting point of 277 to 279 °C.

For `O=C1CCN(CC(c2ccccc2)c2ccccc2)CC1`, the melting point was in the range of 140 to 142 °C.

`CC1=N[C@H](c2ccccc2)COC1=O` yielded a melting point of 71 to 72 °C.

For the compound `CNC(=S)C1(c2cccnc2)CCCCC1=O` (centres undefined), the melting point was in the range of 188 to 190 °C.

Compound `O=C1c2ccccc2C(=O)N1CCCOc1ccc(OCc2ccccc2)cc1` registered a melting point of 141 to 143 °C.

As for `CCC1(O)c2ccccc2C=Cc2ccccc21`, the melting point lay in the range of 63 to 65 °C.

Compound `CCOCc1cc2c(=O)c(C(=O)NCc3ccc(Cl)cc3)cn(C)c2o1` came in with a melting point of 211 to 212 °C.

With `N#Cc1cc(Cc2ccccc2Cl)ccc1N`, the melting point is 79 to 80 °C.

`CC(=O)Oc1c(C)cc(Oc2ccc3nc(CO)n(C)c3n2)c(C)c1C` returned a melting point of 179 to 180 °C.

The compound `COc1ccc2cc([C@H](C)C(=O)OC[C@@]3(C)COC(C)(C)O3)ccc2c1` showed a melting point of 65 to 66 °C.

The compound `Cc1nc(C)c(Cl)c(NCc2nccc(SCCCSCCn3c([N+](=O)[O-])cnc3C)c2C)n1` had a melting point of 145 to 147 °C.

Consider `O=C(O)c1ccccc1NC1CCOC1=O` (centres undefined), for which the melting point fell in the range of 197 to 198 °C.

For the origin of these results see a melting point compilation (Tetko et al.; mined from patent text by program, amines drawn as free bases though some values may be those of a salt).
